{
  "source": "patent US4089965A",
  "about": "“Thiazolylphenylguanidines as antirhinovirus agents” (American Cyanamid Company, priority 1977, dated 1978)",
  "key": {"Rhinovirus Serotype 52": {"tested_on": "Rhinovirus Serotype 52", "test": "Plaque assay, minimal inhibitory concentration", "format": "cell-based", "settings": "Enterovirus; HeLa Cells; inhibiting virus plaque formation by 50%"}, "Coxsackievirus A-15": {"tested_on": "Coxsackievirus A-15", "test": "Plaque assay, minimal inhibitory concentration", "format": "cell-based", "settings": "HeLa Cells, inhibiting virus plaque formation by 50%"}, "Rhinovirus Serotype 2": {"tested_on": "Rhinovirus Serotype 2", "test": "Plaque assay, minimal inhibitory concentration", "format": "cell-based", "settings": "Enterovirus, inhibiting virus plaque formation by 50%"}, "rhinovirus 32": {"tested_on": "rhinovirus 32", "test": "Clinical challenge study in volunteers, clinical symptoms and infection", "format": "in vivo, human", "settings": "intranasal"}, "Rhinovirus strain 2": {"tested_on": "Rhinovirus strain 2", "test": "Protection of tissue from cytopathic effects (plaque inhibition, filter paper disc or agar overlay)", "settings": "33°, 3 to 5 days"}, "Rhinovirus Serotype 5": {"tested_on": "Rhinovirus Serotype 5", "test": "Plaque assay, minimal inhibitory concentration", "format": "cell-based", "settings": "Enterovirus; HeLa Cells; inhibiting virus plaque formation by 50%"}, "Coxsackievirus A-22": {"tested_on": "Coxsackievirus A-22", "test": "Plaque assay, minimal inhibitory concentration", "format": "cell-based", "settings": "HeLa Cells, inhibiting virus plaque formation by 50%"}, "Rhinovirus Serotype 20": {"tested_on": "Rhinovirus Serotype 20", "test": "Plaque assay, minimal inhibitory concentration", "format": "cell-based", "settings": "Enterovirus; HeLa Cells; inhibiting virus plaque formation by 50%"}, "Rhinovirus Serotype 32": {"tested_on": "Rhinovirus Serotype 32", "test": "Plaque assay, minimal inhibitory concentration", "format": "cell-based", "settings": "Enterovirus; HeLa Cells; inhibiting virus plaque formation by 50%"}, "Poliovirus Type 1": {"tested_on": "Poliovirus Type 1", "test": "microbe, parasite or virus in culture", "format": "cell-based", "settings": "Enterovirus C, HeLa, read-out: Minimal Inhibitory Concentration"}, "Rhinovirus Type 5": {"tested_on": "Rhinovirus Type 5", "test": "Viral sensitivity, filter disc method", "format": "cell-based", "settings": "strain Norman; about 50 mcg per disc, HeLa", "method": "(§1) In the test for viral sensitivity, by the filter disc method, 5 mg. of 1-(4-phenyl-2-thiazolyl)-3-phenylguanidine was dissolved in 1-2 drops of dimethylsulfoxide and 2.5 ml. of saline. Filter paper discs, when saturated with the solution, absorbed about 50 mcg. of the compound.\n(§2) Sensitivity tests were performed by a modification of the method of Herrmann, et al., Proc. Soc. Exp. Biol. & Med., 103, 625 (1960). HeLa monolayers in 150 mm plastic dishes were infected with 1.0 ml. of rhinovirus suspension known to produce destruction of 80-90% of the cells in 4 to 5 days. Following viral adsorption, the cells were overlayed with 30 ml. of Eagle's minimum essential medium containing Noble agar at 0.5%, bovine fetal serum at 2.0%, diethylaminoethyl dextran at 100 mcg/ml. and magnesium chloride at 3 millimoles. Filter discs (1/4 inch Carl Schleicher and Schuell Co., No. 740E), containing about 50 mcg. of 1-(4-phenyl-2-thiazolyl)-3-phenylguanidine, were placed on the solidified surface and the culture plates incubated at 33° C. After 4 to 5 days, the overlay medium was decanted and the cells stained with 0.1% crystal violet in 20% ethanol. A zone of 10 mm or more in which at least two-thirds of the cells were protected from viral cytopathic effects, indicates antiviral activity. The following Table III lists 35 rhinovirus serotypes which were inhibited by this compound."}, "Rhinovirus Type 45": {"tested_on": "Rhinovirus Type 45", "test": "Viral sensitivity, filter disc method", "format": "cell-based", "settings": "strain Baylor 1; about 50 mcg per disc, HeLa", "method": "as §1, §2"}, "Rhinovirus Type 28": {"tested_on": "Rhinovirus Type 28", "test": "Viral sensitivity, filter disc method", "format": "cell-based", "settings": "strain 6101CV29; about 50 mcg per disc, HeLa", "method": "as §1, §2"}, "Rhinovirus Type 36": {"tested_on": "Rhinovirus Type 36", "test": "Viral sensitivity, filter disc method", "format": "cell-based", "settings": "strain 342H; about 50 mcg per disc, HeLa", "method": "as §1, §2"}, "Rhinovirus Type 53": {"tested_on": "Rhinovirus Type 53", "test": "Viral sensitivity, filter disc method", "format": "cell-based", "settings": "strain FO13928; about 50 mcg per disc, HeLa", "method": "as §1, §2"}, "Rhinovirus Type 16": {"tested_on": "Rhinovirus Type 16", "test": "Viral sensitivity, filter disc method", "format": "cell-based", "settings": "strain 11757; about 50 mcg per disc, HeLa", "method": "as §1, §2"}, "Rhinovirus Type 41": {"tested_on": "Rhinovirus Type 41", "test": "Viral sensitivity, filter disc method", "format": "cell-based", "settings": "strain 56110; about 50 mcg per disc, HeLa", "method": "as §1, §2"}, "Rhinovirus Type 46": {"tested_on": "Rhinovirus Type 46", "test": "Viral sensitivity, filter disc method", "format": "cell-based", "settings": "strain Baylor 2; about 50 mcg per disc, HeLa", "method": "as §1, §2"}, "Rhinovirus Type 24": {"tested_on": "Rhinovirus Type 24", "test": "Viral sensitivity, filter disc method", "format": "cell-based", "settings": "strain 5146CV25; about 50 mcg per disc, HeLa", "method": "as §1, §2"}, "Rhinovirus Type 19": {"tested_on": "Rhinovirus Type 19", "test": "Viral sensitivity, filter disc method", "format": "cell-based", "settings": "strain 6072CV18; about 50 mcg per disc, HeLa", "method": "as §1, §2"}, "Rhinovirus Type 49": {"tested_on": "Rhinovirus Type 49", "test": "Viral sensitivity, filter disc method", "format": "cell-based", "settings": "strain 8213; about 50 mcg per disc, HeLa", "method": "as §1, §2"}, "Rhinovirus Type 14": {"tested_on": "Rhinovirus Type 14", "test": "Viral sensitivity, filter disc method", "format": "cell-based", "settings": "strain 1059; about 50 mcg per disc, HeLa", "method": "as §1, §2"}, "Rhinovirus Type 47": {"tested_on": "Rhinovirus Type 47", "test": "Viral sensitivity, filter disc method", "format": "cell-based", "settings": "strain 1979MCV46; about 50 mcg per disc, HeLa", "method": "as §1, §2"}, "Rhinovirus Type 30": {"tested_on": "Rhinovirus Type 30", "test": "Viral sensitivity, filter disc method", "format": "cell-based", "settings": "strain 106F; about 50 mcg per disc, HeLa", "method": "as §1, §2"}, "Rhinovirus Type 15": {"tested_on": "Rhinovirus Type 15", "test": "Viral sensitivity, filter disc method", "format": "cell-based", "settings": "strain 1734; about 50 mcg per disc, HeLa", "method": "as §1, §2"}, "Rhinovirus Type 4": {"tested_on": "Rhinovirus Type 4", "test": "Viral sensitivity, filter disc method", "format": "cell-based", "settings": "strain 16/60; about 50 mcg per disc, HeLa", "method": "as §1, §2"}, "Rhinovirus Type 23": {"tested_on": "Rhinovirus Type 23", "test": "Viral sensitivity, filter disc method", "format": "cell-based", "settings": "strain 5124CV24; about 50 mcg per disc, HeLa", "method": "as §1, §2"}, "Rhinovirus Type 2": {"tested_on": "Rhinovirus Type 2", "test": "Viral sensitivity, filter disc method", "format": "cell-based", "settings": "strain HGP; about 50 mcg per disc, HeLa", "method": "as §1, §2"}, "Rhinovirus Type 31": {"tested_on": "Rhinovirus Type 31", "test": "Viral sensitivity, filter disc method", "format": "cell-based", "settings": "strain 140F; about 50 mcg per disc, HeLa", "method": "as §1, §2"}, "Rhinovirus Serotype 23": {"tested_on": "Rhinovirus Serotype 23", "test": "Plaque assay, minimal inhibitory concentration", "format": "cell-based", "settings": "Enterovirus, inhibiting virus plaque formation by 50%"}, "Rhinovirus Serotype 50": {"tested_on": "Rhinovirus Serotype 50", "test": "Plaque assay, minimal inhibitory concentration", "format": "cell-based", "settings": "Enterovirus; HeLa Cells; inhibiting virus plaque formation by 50%"}, "Rhinovirus Serotype 1A": {"tested_on": "Rhinovirus Serotype 1A", "test": "Plaque assay, minimal inhibitory concentration", "format": "cell-based", "settings": "Enterovirus; HeLa Cells; inhibiting virus plaque formation by 50%"}, "Rhinovirus strain 14": {"tested_on": "Rhinovirus strain 14", "test": "Protection of tissue from cytopathic effects (plaque inhibition, filter paper disc or agar overlay)", "settings": "33°, 3 to 5 days"}},
  "note": "Values joined by “and” are separate entries in the source; they are usually repeats but may differ in a detail not shown here. Identical values can stand only once.",
  "data": [
    {"smiles": "N=C(Nc1ccccc1)Nc1nc(-c2ccccc2)cs1", "note": "[1-(4-phenyl-2-thiazolyl)-3-phenylguanidine]", "values": [
      {"measurement": "IC50", "setting": "Rhinovirus Serotype 52", "result": 0.4, "unit": "µg/mL"},
      {"measurement": "IC50", "setting": "Coxsackievirus A-15", "result": "1.6 to 3.1", "unit": "µg/mL"},
      {"measurement": "IC50", "setting": "Rhinovirus Serotype 2; L132, L-132 Cells", "result": "0.4 to 0.8", "unit": "µg/mL"},
      {"measurement": "IC50", "setting": "Rhinovirus Serotype 2; Detroit-6 Cells", "result": 0.4, "unit": "µg/mL"},
      {"measurement": "IC50", "setting": "Rhinovirus Serotype 2; HeLa Cells", "result": "0.4 to 0.8", "unit": "µg/mL"},
      {"measurement": "Clinical Symptom Scores", "setting": "rhinovirus 32; individual subjects on medication (No. 3, 4, 6, 7, 9, 10, 13, 14, 17, 20, in order of lines), signs and symptoms scaled 0 not present to +3 severe", "result": "0 and 11 and 2 and 4 and 3 and 5 and 6 and 1"},
      {"measurement": "protection of humans from rhinovirus type 32 infection", "setting": "rhinovirus 32", "result": "effective in protecting humans from rhinovirus type 32 infection"},
      {"measurement": "volunteers who did not develop rhinovirus infection from challenge", "setting": "rhinovirus 32; rhinovirus type 32 challenge, placebo 4 of 10", "result": "9 of 10"},
      {"measurement": "Protection of tissue from destruction by virus", "setting": "Rhinovirus strain 2", "result": "+"},
      {"measurement": "IC50", "setting": "Rhinovirus Serotype 5", "result": "0.4 to 0.8", "unit": "µg/mL"},
      {"measurement": "IC50", "setting": "Coxsackievirus A-22", "result": "1.6 to 3.1", "unit": "µg/mL"},
      {"measurement": "IC50", "setting": "Rhinovirus Serotype 20", "result": 0.4, "unit": "µg/mL"},
      {"measurement": "IC50", "setting": "Rhinovirus Serotype 32", "result": 0.4, "unit": "µg/mL"},
      {"measurement": "IC50", "setting": "Poliovirus Type 1", "result": 0.8, "unit": "µg/mL"},
      {"measurement": "inhibition of rhinovirus serotype (zone of 10 mm or more)", "setting": "Rhinovirus Type 5", "result": "inhibited"},
      {"measurement": "inhibition of rhinovirus serotype (zone of 10 mm or more)", "setting": "Rhinovirus Type 45", "result": "inhibited"},
      {"measurement": "inhibition of rhinovirus serotype (zone of 10 mm or more)", "setting": "Rhinovirus Type 28", "result": "inhibited"},
      {"measurement": "inhibition of rhinovirus serotype (zone of 10 mm or more)", "setting": "Rhinovirus Type 36", "result": "inhibited"},
      {"measurement": "inhibition of rhinovirus serotype (zone of 10 mm or more)", "setting": "Rhinovirus Type 53", "result": "inhibited"},
      {"measurement": "inhibition of rhinovirus serotype (zone of 10 mm or more)", "setting": "Rhinovirus Type 16", "result": "inhibited"},
      {"measurement": "inhibition of rhinovirus serotype (zone of 10 mm or more)", "setting": "Rhinovirus Type 41", "result": "inhibited"},
      {"measurement": "inhibition of rhinovirus serotype (zone of 10 mm or more)", "setting": "Rhinovirus Type 46", "result": "inhibited"},
      {"measurement": "inhibition of rhinovirus serotype (zone of 10 mm or more)", "setting": "Rhinovirus Type 24", "result": "inhibited"},
      {"measurement": "inhibition of rhinovirus serotype (zone of 10 mm or more)", "setting": "Rhinovirus Type 19", "result": "inhibited"},
      {"measurement": "inhibition of rhinovirus serotype (zone of 10 mm or more)", "setting": "Rhinovirus Type 49", "result": "inhibited"},
      {"measurement": "inhibition of rhinovirus serotype (zone of 10 mm or more)", "setting": "Rhinovirus Type 14", "result": "inhibited"},
      {"measurement": "inhibition of rhinovirus serotype (zone of 10 mm or more)", "setting": "Rhinovirus Type 47", "result": "inhibited"},
      {"measurement": "inhibition of rhinovirus serotype (zone of 10 mm or more)", "setting": "Rhinovirus Type 30", "result": "inhibited"},
      {"measurement": "inhibition of rhinovirus serotype (zone of 10 mm or more)", "setting": "Rhinovirus Type 15", "result": "inhibited"},
      {"measurement": "inhibition of rhinovirus serotype (zone of 10 mm or more)", "setting": "Rhinovirus Type 4", "result": "inhibited"},
      {"measurement": "inhibition of rhinovirus serotype (zone of 10 mm or more)", "setting": "Rhinovirus Type 23", "result": "inhibited"},
      {"measurement": "inhibition of rhinovirus serotype (zone of 10 mm or more)", "setting": "Rhinovirus Type 2", "result": "inhibited"},
      {"measurement": "inhibition of rhinovirus serotype (zone of 10 mm or more)", "setting": "Rhinovirus Type 31", "result": "inhibited"},
      {"measurement": "IC50", "setting": "Rhinovirus Serotype 23; L132, L-132 Cells", "result": "0.4 to 0.8", "unit": "µg/mL"},
      {"measurement": "IC50", "setting": "Rhinovirus Serotype 23; HeLa Cells", "result": "0.2 to 0.4", "unit": "µg/mL"},
      {"measurement": "IC50", "setting": "Rhinovirus Serotype 50", "result": "0.2 to 0.4", "unit": "µg/mL"},
      {"measurement": "IC50", "setting": "Rhinovirus Serotype 1A", "result": "0.2 to 0.4", "unit": "µg/mL"},
      {"measurement": "Protection of tissue from destruction by virus", "setting": "Rhinovirus strain 14", "result": "+"}
    ]}
  ]
}
